Measured values: patent US20110065663A1, “ANTI-CANCER COMBINATION THERAPY” (Katholieke Universiteit Leuven, K.U. Leuven R&D, priority 2008, published 2011)
Several values for one entry are separate records, joined by “and”; a condition that tells them apart may be missing. Equal values may be shown once. Read-outs that look alike come from different tables or passages of the source.

How the values were obtained:
Assay type in all cases: cell-based, human
MCF-7 cells [1] = test: Tumor cell proliferation assay, uninfected MCF-7 cells; conditions: for IC50: Homo sapiens, uninfected MCF-7
Experimental: MCF-7 and MCF-7/HYOR cells were seeded in 48-well plates at 10,000 cells/cm^2. […] of the test compounds (5FU, 5′DFUR, CIdUrd, BrdUrd, IdUrd and TFT) with or without 10 μM TPi were added. The cells were incubated for another 4 days, trypsinized and counted by a Coulter counter (Analis, Suarlée, Belgium). In some experiments, the antibiotic plasmocin was added one or three days before addition of the test compounds.

MCF-7/HYOR cells [2] = test: Tumor cell proliferation assay, M. hyorhinis-infected MCF-7 cells; conditions: for IC50: Homo sapiens, MCF7, M. hyorhinis-infected MCF-7
Experimental: Mycoplasma hyorhinis (ATCC 17981) was obtained from the American Type Culture Collection (ATCC, Manassas, Va.). The freeze-dried bacteria were reconstituted by adding 1 ml of DMEM. […] The co-culture of MCF-7 cells and M. hyorhinis was maintained under the same conditions as the uninfected MCF-7 cells. […] The cells were incubated for another 4 days, trypsinized and counted by a Coulter counter (Analis, Suarlée, Belgium).

MCF-7/HYOR cell cultures = test: Nucleoside metabolism experiments, distribution of drug-derived radiolabel in MCF-7/HYOR cell cultures; conditions: 24 h; 1 μCi; FIG. 5
Experimental: Next, the cells were trypsinized, transferred to Eppendorf tubes and centrifuged for 10 minutes at 1,400 rpm. The pellet was resuspended in 1 ml absolute ice-cold methanol and kept on ice for 20 minutes. After centrifugation for 20 minutes at 13,000 rpm the pellet was washed twice with methanol, resuspended in methanol and transferred to scintillation vials containing 9 ml of Ready safe liquid scintillation reagent (‘Hisafe 3’, Perkin Elmer, Waltham, Mass.). The radioactivity was measured by a Liquid scintillation analyzer (2300 TR, Packard, Canberra, Australia). […] Next, the cells were incubated in 0.5 ml absolute ice-cold methanol and kept on ice for 20 minutes. After centrifugation for 20 minutes at 13,000 rpm, the supernatant was subjected to HPLC analysis. […] The amount of compound incorporated into nucleic acids was measured as described above.

OST.TK^− cells = test: Cytostatic activity in M. hyorhinis-infected osteosarcoma cells
MDA-MB-231 cells = test: Cytostatic activity in M. hyorhinis-infected MDA-MB-231 breast carcinoma cells
MCF-7 cells [3] = test: Flow cytometry, cell cycle arrest in MCF-7 cells
MCF-7/HYOR cells [4] = test: Flow cytometry, cell cycle arrest in MCF-7/HYOR cells
MCF-7 cells [5] = test: Gemcitabine metabolite distribution in MCF-7 cells (HPLC); conditions: 24 h; 1 μCi; FIG. 5
Experimental: MCF-7 and MCF-7/HYOR cells were seeded and treated with 1 μCi of nucleoside with and without TPi as described above. […] Next, the cells were incubated in 0.5 ml absolute ice-cold methanol and kept on ice for 20 minutes. After centrifugation for 20 minutes at 13,000 rpm, the supernatant was subjected to HPLC analysis. The nucleobases, nucleosides and nucleotides in the supernatant were separated by a Partisphere 10 SAX anion exchange column (Whatmann International Ltd., Maidstone, England) as described earlier (Balzarini J. et al., AIDS 2002; 16:2159-63), while the nucleobases and nucleosides present in the collected medium were separated using an RP-8 column. The amount of compound incorporated into nucleic acids was measured as described above.

[6] = IC50 in the absence of TPi to IC50 in the presence of TPi

In the case of `Nc1ccn([C@@H]2O[C@H](CO)[C@@H](O)C2(F)F)c(=O)n1` [gemcitabine, 2′,2′-difluorodeoxycytidine], the IC50 (MCF-7 cells [1]; MCF7, 96 h, no TPi, 4 days, read-out: IC50 MCF-7 As such) is reported as 7.3 ± 3.6 nM, the IC50 (MCF-7 cells [1]; MCF7, with 10 μM TPi, read-out: IC50 MCF-7 +TPi (10 μM)) is reported as 6.3 ± 2.2 nM and the “Ratio (1)/(2) MCF-7” value (MCF-7 cells [1]; [6]) is reported as 1.2. The IC50 (MCF-7/HYOR cells [2]; no TPi, no plasmocin, read-out: IC50 MCF-7/HYOR As such) was 80 ± 28 nM, the IC50 (MCF-7/HYOR cells [2]; with 10 μM TPi, read-out: IC50 MCF-7/HYOR +TPi (10 μM)) was 5.8 ± 1.2 nM and the “Ratio (1)/(2) MCF-7/HYOR” value (MCF-7/HYOR cells [2]; [6]) was 14. For the same compound, the “Reduction of cytostatic activity in infected MCF-7/HYOR compared to control MCF-7 cells” value (MCF-7/HYOR cells [2]; M. hyorhinis infection) was 10 fold and 14 fold, the “Anti-proliferative activity in MCF-7/HYOR after three days pre-incubation with doxycycline” value (MCF-7/HYOR cells [2]; doxycycline, 3 days) was “restores” and the “Anti-proliferative activity in MCF-7/HYOR after three days pre-incubation with plasmocin” value (MCF-7/HYOR cells [2]; plasmocin 25 μg/ml, 3 days) was “restores”. The “Active (phosphorylated) metabolites of gemcitabine in M. hyorhinis infected MCF-7 cells” value (MCF-7/HYOR cell cultures) was “no active metabolite can be detected”, the “Reduction in the cytostatic activity upon M. hyorhinis infection” value (OST.TK^− cells) was 70 fold and the “Reduction in the cytostatic activity upon M. hyorhinis infection” value (MDA-MB-231 cells) was 40 fold. The “Concentration causing cell cycle arrest in the S-phase” value (MCF-7 cells [3]) was 0.2 µM, the “Higher concentration needed to cause a similar S-phase arrest than in MCF-7” value (MCF-7/HYOR cells [4]) was 25 fold and the “Activation (phosphorylation) of gemcitabine in MCF-7 cells” value (MCF-7 cells [5]) was “readily activated”.
